Source: US8318697B2, “Prophylactic and therapeutic treatment of infectious and other diseases with mono- and disaccharide-based compounds” (Corixa Corporation, priority 2000, dated 2012)
Like-named read-outs stand apart in the source and are kept apart here.

Experiments:
[1] = system: human peripheral blood mononuclear cells (PBMC); assay: Cytokine elaboration from frozen human PBMC (ELISA); assay type: cell-based; conditions: PBMC donor AD112, 22 hours; FIG. 9
Experimental: PBMC were stored frozen until used. PBMC donor designation was AD112. PBMC at a density of 6.26×10^5 were plated per well in a 48 well plate in 1.0 ml of medium. Medium consisted of RPMI-1640 plus sodium bicarbonate, 10% fetal bovine serum, 4 mM glutamine, 100 ug/ml gentamicin and 10 mM HEPES. PBMC were cultured for 22 hours at 37° C. in a carbon dioxide incubator. Supernatants were harvested and tested by ELISA (R&D Systems) for IL-6, IL-8, IL-10 and MIP-1 beta concentration. Cytokine concentration in supernatants was compared to supernatants obtained from unstimulated PBMC cultured identically.

[2] = system: human whole blood; assay type: cell-based; conditions: for IL10/TNFα cba: ratio of IL-10 to TNF; for TNFα/IL10 cba: ratio of TNF to IL-10
[3] = system: influenza A/HK/68; assay: Lethal influenza challenge model, intranasal monotherapy; conditions: i.n., doses up to 40 μg; FIG. 12
Experimental: A dose of 20 μg MonoPhosphoryl Lipid A (MPL) was given to groups of female BALB/c mice by intranasal (i.n.) administration either 2 days prior to or the day of lethal influenza challenge. All mice were challenged with approximately 2 LD50 infectious influenza A/HK/68 administered i.n. Mortality was monitored for 21 days following influenza challenge.
A dose of 20 μg L-Seryl AGPs (RC-526, RC-554, RC-555, RC-537, RC-527, RC-538, RC-560, RC-512 and vehicle only) was given to groups of female BALB/c mice by intranasal (i.n.) administration 2 days prior to or the day of lethal influenza challenge. All mice were challenged with approximately 2 LD50 infectious influenza A/HK/68 administered i.n. The disease index (ruffled fur, hunched posture and labored breathing) was monitored during days 4-19 following influenza challenge. Weight loss and mortality were monitored for 21 days following influenza challenge.

[4] = system: Ogawa P. gingivalis LPS stimulated whole blood cells; assay: Inhibition of LPS-induced cytokines in whole blood; assay type: cell-based, human; conditions: 10, 5, 2.5 ug/mL
Text: Table 4 provides the maximum levels of IL-4, IL-2 and IL-5 obtained, as well as ratios of TNF to IL-10, and ratios of IL-10 to TNF. Inhibition data for IL-8, reported as a percentage, are also provided on the right hand side of Table 4. For example, 90% inhibition would calculate to a 90% reduction of cytokine levels. MIP-1β results were similar. […]

[5] = system: human PBMCs; assay: Lineage specific cell surface activation markers in human PBMCs; assay type: cell-based; conditions: LPS 10 ng/ml, RC-526 or RC-527 10 μg/ml
Experimental: This experiment describes lineage specific cell surface activation markers in human PBMCs activated with LPS or selected AGPs. PBMCs were harvested from a normal donor and plated at 1×10^7 cells/well in a […] (6 well plate) with 3 ml RPMI. LPS (10 ng/ml), RC-526 (10 μg/ml) or RC-527 (10 μg/ml) were added to each of 4 wells. Cells were harvested from each of 2 wells at 4 hr and 24 hr following activation and immediately stained for the lineage and cell surface activation markers.

[6] = system: L. monocytogenes 10403 serotype; assay: Murine Listeria monocytogenes challenge model; assay type: in vivo, Mice; conditions: 1 μg intravenously in 0.2% TEOA, challenge two days later; FIGS. 14-17
Experimental: This example provides experiments evaluating the induction of non-specific resistance in the murine Listeria monocytogenes challenge model performed using various AGPs and MPL. Mice (5 per group) were treated intravenously with the 1 μg of an AGP or MPL solubilized in 0.2% TEOA. Two days later the mice were challenged intravenously with a ˜10^5 L. monocytogenes 10403 serotype (provided by M. L. Gray, Montana State University, Bozeman, Mont.). Two days after the challenge, the mice were sacrificed and the number of colony forming units (CFUs) in the spleens of individual mice were determined by plating 10-fold serial dilutions of splenic homogenates on tryptic soy agar plates. The degree of protection afforded by a given AGP or MPL was calculated by subtracting the average number of bacteria per spleen (log 10 value) in the group of mice treated with a given compound, from the average number of bacteria per spleen (log 10 value) in a control group that was “sham” treated with vehicle (0.2% TEOA) prior to challenge with L. monocytogenes.

[7] = system: P. carinii; assay: Protection against P. carinii infection in anti-CD4 treated (immunocompromised) mice, lung impression smear score; assay type: in vivo; set-up: GIEMSA score for presence of P. carinii / SILVER score for presence of P. carinii: scale not given here
Experimental: Mice were pretreated with L3T4 anti-CD4 antibody for a minimum of 2 weeks (2 injections/week, 0.2 mg/injection) or until the peripheral CD4 count was reduced by at least about 50%.
An aqueous formulation was prepared containing 1 mg/ml 3-O-deacylated monophosphoryl lipid A and 108 μg/ml of the surfactant DPPC in water. The formulation was administered intratracheally via a small cannula at −24 hours and then twice a week for the remainder of the study. The concentrations administered are indicated below in Table 1. One million P. carinii were inoculated trans-tracheally at day 0. Twice-weekly treatments were continued for 7 weeks, lungs were removed and impression smears made. Slides were stained with Giemsa and silver and scored for the presence of P. carinni as follows.

[8] = system: human macrophage; assay: Microarray of RNA from stimulated human macrophage; assay type: cell-based
[9] = system: C3H/HEJ splenocytes; assay: Cytokine induction in C3H/HEJ (toll-receptor 4 mutant) mouse splenic cultures; assay type: cell-based
Experimental: Lipid A compounds were tested by reconstitution in 0.2% triethanolamine in sterile water for irrigation, incubated at 56° C. and sonicated for 2×10 minutes at 37° C. LPS 055B5 (Sigma-Aldrich; St Louis, Mo.) was diluted into PBS.
BALB/c, DBA/2 and C3H/HEJ mice were purchased from The Jackson Laboratory (Bar Harbor, Me.). Spleens were taken from the mice between 2 PM and 3 PM, and separate single cell suspensions were obtained for each mouse strain. Red blood cells were lysed using Tris-ammonium chloride solution (Sigma-Aldrich), cells were washed and counted using Trypan Blue (Sigma-Aldrich) exclusion. One million splenocytes were cultured per well in 1.0 mL of culture medium. Splenic culture medium (SCM) was designed for 5 day or longer cultures of mouse splenocytes and consisted of RPMI 1640 (Sigma-Aldrich) supplemented to 5% with fetal bovine serum (HyClone; Logan, Utah), 100 ug/mL Gentamicin (Sigma-Aldrich), 250 ng/mL amphothericin (InVitrogen Life Technologies; Carlsbad, Calif.), 1×ITS (bovine insulin 500 ng/mL, human transferring 500 ng/mLg, sodium selenite 250 ng/mL, Sigma), beta-mercaptoethanol 43 nM (Sigma-Aldrich) purivic acid 1 mM (Sigma-Aldrich), HEPES 10 mM (Sigma-Aldrich). Data from these experiments is presented herein as FIG. 8.
BALB/c responses and C3H/HEJ responses were compared for MPL and RC552. […]

[10] = 25 MG/KG intratracheally at -24 hours then twice a week, 7 weeks, Table 1
[11] = 100 MG/KG intratracheally, 7 weeks, Table 1
[12] = 250 MG/KG intratracheally, 7 weeks, Table 1

Row | Compound | IL10/TNFα cba ([2]; donor 1) | TNFα/IL10 cba ([2]; donor 1) | protection against influenza challenge over dose range [3] | % inhib. LPS IL-8 [4] | CD3+ CD69+ percent expression in NK-Cells (CD56+) ([5]; 4 hr activation) | CD25+ percent expression in B-cells (CD19+) ([5]; 4 hr activation) | CD25+ percent expression in Mono/Macs (CD14+) ([5]; 4 hr activation) | CD69+ percent expression in B-cells (CD19+) ([5]; 4 hr activation) | CD69+ percent expression in Mono/Macs (CD14+) ([5]; 4 hr activation) | CD69+ percent expression in NK-Cells (CD56+) ([5]; 4 hr activation) | CD69+ percent expression in T-cells (CD3+) ([5]; 4 hr activation) | CD86+ percent expression in B-cells (CD19+) ([5]; 4 hr activation) | CD95+ percent expression in B-cells (CD19+) ([5]; 4 hr activation) | MFI CD11b+ in Mono/Macs (CD14+) ([5]; 4 hr activation) | MFI CD54+ (ICAM-1) in B-cells (CD19+) ([5]; 4 hr activation) | MFI CD54+(ICAM-1) in Mono/Macs (CD14+) ([5]; 4 hr activation) | TLR2+ percent expression in Mono/Macs (CD14+) ([5]; 4 hr activation) | IL-1β cba2 ([2]; donor 1) | IL10/TNFα cba ([2]; donor 2) | TNFα/IL10 cba ([2]; donor 2) | further results
1 | CCCCCCCCCCCCCC(=O)O[C@H](CCCCCCCCCCC)CC(=O)NCCO[C@@H]1O[C@H](CO)[C@@H](OP(=O)(O)O)[C@H](OC(=O)C[C@@H](CCCCCCCCCCC)OC(=O)CCCCCCCCCCCCC)[C@H]1NC(=O)C[C@@H](CCCCCCCCCCC)OC(=O)CCCCCCCCCCCCC.CCN(CC)CC [RC-529] | 6.2 | 0.4 | – | – | – | – | – | – | – | – | – | – | – | – | – | – | – | – | – | – | IL-6 elaboration compared to MPL [1]: induced more IL-6, IL-10 and MIP-1 beta than did MPL; IL-10 elaboration compared to MPL [1]: induced more IL-6, IL-10 and MIP-1 beta than did MPL; MIP-1 beta elaboration compared to MPL [1]: induced more IL-6, IL-10 and MIP-1 beta than did MPL
2 | CCCCCCCCCCC[C@H](CC(=O)N[C@H]1[C@H](OC[C@H](NC(=O)C[C@@H](CCCCCCCCCCC)OC(=O)CCCCC)C(=O)O)O[C@H](CO)[C@@H](OP(=O)(O)O)[C@@H]1OC(=O)C[C@@H](CCCCCCCCCCC)OC(=O)CCCCC)OC(=O)CCCCC.CCN(CC)CC [RC-526] | – | – | no difference in protection up to doses of 40 μg | 99% | 1% | 0% | 1% | 11% | 1% | 4% | 1% | 4% | 6% | 2154 | 55 | 502 | 93% | 256 | 1.2 | 0.9 | CD3+ CD69+ percent expression in NK-Cells (CD56+) ([5]; 24 hr activation): 2%; CD14+ CD25+ percent expression in Mono/Macs (CD14+) ([5]; 24 hr activation): 1%; CD14+ CD69+ percent expression in Mono/Macs (CD14+) ([5]; 24 hr activation): 2%; CD14+ TLR2+ percent expression in Mono/Macs (CD14+) ([5]; 24 hr activation): 79%; CD19+ CD25+ percent expression in B-Cells (CD19+) ([5]; 24 hr activation): 9%; CD19+ CD69+ percent expression in B-Cells (CD19+) ([5]; 24 hr activation): 22%; CD19+ CD86+ percent expression in B-Cells (CD19+) ([5]; 24 hr activation): 22%; CD19+ CD95+ percent expression in B-Cells (CD19+) ([5]; 24 hr activation): 15%; CD69+ percent expression in NK-Cells (CD56+) ([5]; 24 hr activation): 4%; CD69+ percent expression in T-cells (CD3+) ([5]; 24 hr activation): 2%; MFI CD11b+ in Mono/Macs (CD14+) ([5]; 24 hr activation): 1986; MFI CD54+ (ICAM-1) in B-cells (CD19+) ([5]; 24 hr activation): 118; MFI CD54+(ICAM-1) in Mono/Macs (CD14+) ([5]; 24 hr activation): 1590; cytokine stimulation in human whole blood cultures ([2]; overnight culture): little if any cytokine stimulation
3 | CCCCCCCCCCC[C@H](CC(=O)N[C@H]1[C@H](OC[C@H](NC(=O)C[C@@H](CCCCCCCCCCC)OC(=O)CCCCCCCCC)C(=O)O)O[C@H](CO)[C@@H](OP(=O)(O)O)[C@@H]1OC(=O)C[C@@H](CCCCCCCCCCC)OC(=O)CCCCCCCCC)OC(=O)CCCCCCCCC.CCN(CC)CC [RC-527] | 0.4 | 2.5 | maximum protection over a dose range of 2.5 μg to 40 μg | 5% | 11% | 0% | 1% | 56% | 22% | 40% | 10% | 8% | 7% | 1870 | 65 | 743 | 85% | 7102 | 0.3 | 3.4 | protection against L. monocytogenes challenge (reduction of log 10 bacteria per spleen vs vehicle) [6]: protection that was equal to or greater than that provided by MPL; CD3+ CD69+ percent expression in NK-Cells (CD56+) ([5]; 24 hr activation): 16%; CD14+ CD25+ percent expression in Mono/Macs (CD14+) ([5]; 24 hr activation): 70%; CD14+ CD69+ percent expression in Mono/Macs (CD14+) ([5]; 24 hr activation): 22%; CD14+ TLR2+ percent expression in Mono/Macs (CD14+) ([5]; 24 hr activation): 97%; CD19+ CD25+ percent expression in B-Cells (CD19+) ([5]; 24 hr activation): 34%; CD19+ CD69+ percent expression in B-Cells (CD19+) ([5]; 24 hr activation): 66%; CD19+ CD86+ percent expression in B-Cells (CD19+) ([5]; 24 hr activation): 51%; CD19+ CD95+ percent expression in B-Cells (CD19+) ([5]; 24 hr activation): 73%; CD69+ percent expression in NK-Cells (CD56+) ([5]; 24 hr activation): 50%; CD69+ percent expression in T-cells (CD3+) ([5]; 24 hr activation): 10%; MFI CD11b+ in Mono/Macs (CD14+) ([5]; 24 hr activation): 1611; MFI CD54+ (ICAM-1) in B-cells (CD19+) ([5]; 24 hr activation): 211; MFI CD54+(ICAM-1) in Mono/Macs (CD14+) ([5]; 24 hr activation): 4445
4 | 3-O-deacylated monophosphoryl lipid A [MPL] | – | – | – | – | – | – | – | – | – | – | – | – | – | – | – | – | – | 1213 | 1 | 1 | GIEMSA score for presence of P. carinii [7, 10]: 3.4 ± 0.5; SILVER score for presence of P. carinii [7, 10]: 3.3 ± 0.1; GIEMSA score for presence of P. carinii [7, 11]: 2.7 ± 0.5; SILVER score for presence of P. carinii [7, 11]: 3.2 ± 0.1; GIEMSA score for presence of P. carinii ([7]; 100 MG/KG, repeated study, Table 2): 1.3 ± 0.3; GIEMSA score for presence of P. carinii ([7]; 200 MG/KG, repeated study, Table 2): 1.0 ± 0.3; GIEMSA score for presence of P. carinii [7, 12]: 1.8 ± 0.8; SILVER score for presence of P. carinii [7, 12]: 1.6 ± 0.2; nonspecific resistance to infection by Pneumocystis carinii ([7]; pulmonary delivery, immunocompromised mice): promotes nonspecific resistance to infection by Pneumocystis carinii; early TNF alpha RNA ([8]; 1 hour): early (1 hour) TNF alpha RNA for both compounds; 6 hour TNF alpha RNA ([8]; 6 hour): measurable 6 hour RNA; cytokine response [9]: Neither MPL nor RC552 induced a cytokine response
